# Test results as given in ChEMBL document CHEMBL4402530, “New dimensions in the field of antimalarial research against malaria resurgence” (Eur J Med Chem, 2019).
# Columns and labels:
# Plasmodium falciparum [1] = experiment: Antiparasitic activity against Plasmodium falciparum D10; type: functional, organism-based
# Plasmodium falciparum [2] = experiment: Antiparasitic activity against Plasmodium falciparum K1; type: functional, organism-based
# Plasmodium falciparum [3] = experiment: Antiparasitic activity against Plasmodium falciparum D6; type: functional, organism-based
# Plasmodium falciparum [4] = experiment: Antiparasitic activity against Plasmodium falciparum W2; type: functional, organism-based
# Plasmodium falciparum [5] = experiment: Antiparasitic activity against Plasmodium falciparum […]; type: functional, organism-based
# Plasmodium falciparum [6] = experiment: Antiparasitic activity against Plasmodium falciparum TM91C235; type: functional, organism-based
# Plasmodium falciparum [7] = experiment: Antiparasitic activity against Plasmodium falciparum infected in human HepG2 cells; type: functional, organism-based
# Plasmodium falciparum [8] = experiment: Antiparasitic activity against Plasmodium falciparum infected in human PBMC; type: functional, organism-based
# Plasmodium falciparum [9] = experiment: Antiparasitic activity against Plasmodium falciparum 3D7; type: functional, organism-based
# Plasmodium falciparum [10] = experiment: Antiparasitic activity against chloroquine-resistant Plasmodium falciparum Dd2; type: functional, organism-based
# Plasmodium falciparum [11] = experiment: Antiparasitic activity against Plasmodium falciparum C2B; type: functional, organism-based
# Plasmodium falciparum [12] = experiment: Antiparasitic activity against Plasmodium falciparum Tm90; type: functional, organism-based
# Plasmodium falciparum [13] = experiment: Antiparasitic activity against Plasmodium falciparum Dd2; type: functional, organism-based
# [14] = Selectivity index, ratio of IC50 for African green Monkey BGM cells to IC50 for chloroquine-resistant Plasmodium falciparum W2; type: toxicity; details: read-out: Selectivity Index
# Plasmodium berghei [15] = experiment: Antiparasitic activity against Plasmodium berghei ANKA infected in mouse assessed as mouse survival; type: functional
# Plasmodium berghei [16] = experiment: Antiparasitic activity against Plasmodium berghei ANKA infected in CD1 mouse assessed as reduction in parasitemia; type: functional
# Plasmodium falciparum [17] = experiment: Antiparasitic activity against Plasmodium falciparum infected in mouse; type: functional
# Plasmodium falciparum [18] = experiment: Antiparasitic activity against Plasmodium falciparum infected in SCID mouse; type: functional
# Plasmodium falciparum [19] = experiment: Antiparasitic activity against Plasmodium falciparum; type: functional, organism-based
smiles,measurement,setting,value
CC(C)c1cc2c(cc1O)[C@@]1(C)CCCC(C)(C)[C@@H]1CC2 [FERRUGINOL],IC50,Plasmodium falciparum [1],0.9 to 4.2 µg/mL
same,IC50,Plasmodium falciparum [2],0.9 to 4.2 µg/mL
same,IC50,Plasmodium falciparum [3],0.9 to 4.2 µg/mL
same,IC50,"Plasmodium falciparum [4]; Plasmodium falciparum, W2",0.9 to 4.2 µg/mL
CC(=O)O[C@H]1C[C@H]2[C@@H]([C@H](OC(C)=O)C[C@@H]3C[C@H](NC(=O)OC(C)(C)C)CC[C@@]32C)[C@@H]2CC[C@H]([C@H](C)CCCNCCNc3ccnc4cc(Cl)ccc34)[C@@]12C,IC50,Plasmodium falciparum [3],1.35 to 14.1 nM
CC(=O)O[C@H]1C[C@H]2[C@@H]([C@H](OC(C)=O)C[C@@H]3C[C@H](N)CC[C@@]32C)[C@@H]2CC[C@H]([C@H](C)CCCN(C)CCNc3ccnc4cc(Cl)ccc34)[C@@]12C,IC50,Plasmodium falciparum [5],1140 nM
same,IC50,Plasmodium falciparum [6],9.2 nM
same,IC50,Plasmodium falciparum [7],> 1000 nM
same,IC50,Plasmodium falciparum [3],4.46 nM
same,IC50,Plasmodium falciparum [8],> 1000 nM
same,IC50,"Plasmodium falciparum [4]; Plasmodium falciparum, W2",3.74 nM
CC(=O)O[C@@H]1CC[C@@]2(C)[C@@H](C1)C[C@@H](OC(C)=O)[C@@H]1[C@@H]2C[C@H](OC(C)=O)[C@]2(C)[C@@H]([C@H](C)CCCNCCCNc3ccnc4cc(Cl)ccc34)CC[C@@H]12,IC50,"Plasmodium falciparum [4]; Plasmodium falciparum, W2",2.63 to 13.8 nM
CC(C)=CC(=O)O[C@@H]1C[C@@]2(C)[C@@H](C=C1C)O[C@@H]1[C@H](O)[C@@H](O)[C@@]2(C)[C@]12CO2,IC50,Plasmodium falciparum [4],370 nM
same,IC50,Plasmodium falciparum [9],29 nM
CC(=O)O[C@H]1C[C@H]2[C@@H]([C@H](OC(C)=O)C[C@@H]3C[C@H](O)CC[C@@]32C)[C@@H]2CC[C@H]([C@H](C)CCCNCCNc3ccnc4cc(Cl)ccc34)[C@@]12C,IC50,Plasmodium falciparum [3],1.35 to 14.1 nM
same,IC50,"Plasmodium falciparum [4]; Plasmodium falciparum, W2",2.63 to 13.8 nM
NS(=O)(=O)c1cccc(-n2cc(CNc3ccnc4cc(Cl)ccc34)nn2)c1,IC50,Plasmodium falciparum [10],600 nM
same,IC50,"Plasmodium falciparum [9]; Plasmodium falciparum, 3D7",600 nM
CC(=O)O[C@H]1C[C@H]2[C@@H]([C@H](OC(C)=O)C[C@@H]3C[C@H](NS(C)(=O)=O)CC[C@@]32C)[C@@H]2CC[C@H]([C@H](C)CCCN(C)CCNc3ccnc4cc(Cl)ccc34)[C@@]12C,IC50,Plasmodium falciparum [3],1.35 to 14.1 nM
same,IC50,"Plasmodium falciparum [4]; Plasmodium falciparum, W2",2.63 to 13.8 nM
NS(=O)(=O)c1cccc(-n2cc(CCCNc3ccnc4cc(Cl)ccc34)nn2)c1,IC50,Plasmodium falciparum [10],600 nM
same,IC50,"Plasmodium falciparum [9]; Plasmodium falciparum, 3D7",600 nM
NS(=O)(=O)c1ccc(-n2cc(CNc3ccnc4cc(Cl)ccc34)nn2)cc1,IC50,Plasmodium falciparum [10],600 nM
same,IC50,"Plasmodium falciparum [9]; Plasmodium falciparum, 3D7",600 nM
CCCCCCCc1c(C)nc2cc(F)cc(F)c2c1OC(=O)OCCOCCOCCOCCOC,IC50,Plasmodium falciparum [11],146 nM
same,IC50,Plasmodium falciparum [3],0.05 nM
same,IC50,Plasmodium falciparum [12],81 nM
same,IC50,Plasmodium falciparum [13],0.4 nM
O=Cc1cn(-c2ccnc3cc(Cl)ccc23)nn1,selectivity ratio,[14],351
NS(=O)(=O)c1ccc(-n2cc(CCNc3ccnc4cc(Cl)ccc34)nn2)cc1,IC50,Plasmodium falciparum [10],600 nM
same,IC50,"Plasmodium falciparum [9]; Plasmodium falciparum, 3D7",600 nM
OC(CN1CCC2(CC1)CC(O)c1ccc3ccccc3c1O2)c1ccc(F)c(F)c1 (stereo not drawn),EC50,Plasmodium falciparum [10],350 nM
same,Survival,Plasmodium berghei [15],>1.7 days
CC(C)(C)NCc1cc(Nc2ccnc3cc(Cl)ccc23)ccc1F,ED50,Plasmodium berghei [16],5.3 mg/kg
COc1cc2[nH]c(C)c(-c3ccc(Oc4ccc(OC(F)(F)F)cc4)cc3)c(=O)c2cc1Cl,ED50,Plasmodium falciparum [17],0.016 mg/kg
same,ED50,Plasmodium falciparum [18],6 mg/kg
same,EC50,Plasmodium falciparum [3],1.3 to 13.6 nM
same,EC50,Plasmodium falciparum [8],1.3 to 13.6 nM
same,EC50,"Plasmodium falciparum [9]; Plasmodium falciparum, 3D7",1.3 to 13.6 nM
same,EC50,Plasmodium falciparum [19],0.58 nM
C[C@H]1Cc2c([nH]c3cc(Cl)c(F)cc23)[C@@]2(N1)C(=O)Nc1ccc(Cl)cc12 [CIPARGAMIN],ED50,Plasmodium falciparum [17],1 mg/kg
same,ED90,Plasmodium falciparum [17],3 mg/kg
same,ED99,Plasmodium falciparum [17],5 mg/kg
NS(=O)(=O)c1cccc(-n2cc(CCNc3ccnc4cc(Cl)ccc34)nn2)c1,IC50,Plasmodium falciparum [10],600 nM
same,IC50,"Plasmodium falciparum [9]; Plasmodium falciparum, 3D7",600 nM
CC(=O)O[C@H]1C[C@H]2[C@@H]([C@H](OC(C)=O)C[C@@H]3CC(=O)CC[C@@]32C)[C@@H]2CC[C@H]([C@H](C)CCCNCCNc3ccnc4cc(Cl)ccc34)[C@@]12C,IC50,Plasmodium falciparum [3],1.35 to 14.1 nM
same,IC50,"Plasmodium falciparum [4]; Plasmodium falciparum, W2",2.63 to 13.8 nM
COc1cc2[nH]c(C)c(-c3ccc(Oc4ccc(OC(F)(F)F)cc4)cc3F)c(=O)c2cc1Cl,ED50,Plasmodium falciparum [17],0.3 mg/kg
same,EC50,Plasmodium falciparum [3],3.18 to 32.3 nM
same,EC50,Plasmodium falciparum [8],3.18 to 32.3 nM
same,EC50,"Plasmodium falciparum [9]; Plasmodium falciparum, 3D7",3.18 to 32.3 nM
same,EC50,Plasmodium falciparum [19],1.06 nM
O=C(N/N=C/c1ccc(Br)cc1)C(=O)Nc1ccc(Nc2ccnc3cc(Cl)ccc23)cc1,IC50,Plasmodium falciparum [2],52 nM
same,IC50,"Plasmodium falciparum [9]; Plasmodium falciparum, 3D7",19.7 nM
CC(=O)O[C@H]1C[C@H]2[C@@H]([C@H](OC(C)=O)C[C@@H]3C[C@H](NC(=O)OC(C)(C)C)CC[C@@]32C)[C@@H]2CC[C@H]([C@H](C)CCCN(C)CCNc3ccnc4cc(Cl)ccc34)[C@@]12C,IC50,"Plasmodium falciparum [4]; Plasmodium falciparum, W2",2.63 to 13.8 nM
CC(=O)O[C@@H]1CC[C@@]2(C)[C@@H](C1)C[C@@H](OC(C)=O)[C@@H]1[C@@H]2C[C@H](OC(C)=O)[C@]2(C)[C@@H]([C@H](C)CCCN(C)CCCNc3ccnc4cc(Cl)ccc34)CC[C@@H]12,IC50,"Plasmodium falciparum [4]; Plasmodium falciparum, W2",2.63 to 13.8 nM
CC(C)(C)c1ccc(/C=N/NC(=O)C(=O)Nc2ccc(Nc3ccnc4cc(Cl)ccc34)cc2)cc1,IC50,Plasmodium falciparum [2],52 nM
same,IC50,"Plasmodium falciparum [9]; Plasmodium falciparum, 3D7",19.7 nM
"O[C@@H](c1cc(C(F)(F)F)nc2c(C(F)(F)F)cccc12)[C@H]1CCCCN1 [(S,R)-MEFLOQUINE]",IC50,Plasmodium falciparum [3],15.2 nM
COc1cc(NC(C)CCCNCc2ccc(CO[C@H]3O[C@@H]4O[C@@]5(C)CC[C@H]6[C@H](C)CC[C@@H]([C@H]3C)[C@@]46OO5)cc2)c2ncccc2c1 (stereo partly drawn),IC50,"Plasmodium falciparum [4]; Plasmodium falciparum, W2",112 nM
CC(CCNc1ccnc2cc(Cl)ccc12)NCCO[C@H]1O[C@@H]2O[C@@]3(C)CC[C@H]4[C@H](C)CC[C@@H]([C@H]1C)[C@@]24OO3 (stereo partly drawn),IC50,Plasmodium falciparum [1],17.1 nM
same,IC50,Plasmodium falciparum [13],12.2 nM
CC(=O)O[C@H]1C[C@H]2[C@@H]([C@H](OC(C)=O)C[C@@H]3C[C@H](N(C)C)CC[C@@]32C)[C@@H]2CC[C@H]([C@H](C)CCCN(C)CCNc3ccnc4cc(Cl)ccc34)[C@@]12C,IC50,Plasmodium falciparum [5],2270 nM
same,IC50,Plasmodium falciparum [6],3.32 nM
same,IC50,Plasmodium falciparum [3],2.63 nM
NS(=O)(=O)c1ccc(-n2cc(CCCNc3ccnc4cc(Cl)ccc34)nn2)cc1,IC50,Plasmodium falciparum [10],600 nM
same,IC50,"Plasmodium falciparum [9]; Plasmodium falciparum, 3D7",600 nM
Cc1[nH]c2cc(F)cc(F)c2c(=O)c1CCCCCCCl,IC50,Plasmodium falciparum [11],146 nM
same,IC50,Plasmodium falciparum [3],0.05 nM
same,IC50,Plasmodium falciparum [12],81 nM
same,IC50,Plasmodium falciparum [13],0.4 nM
CC(=O)O[C@H]1C[C@H]2[C@@H]([C@H](OC(C)=O)C[C@@H]3CC(=O)CC[C@@]32C)[C@@H]2CC[C@H]([C@H](C)CCCNCCCNc3ccnc4cc(Cl)ccc34)[C@@]12C,IC50,Plasmodium falciparum [3],1.35 to 14.1 nM
same,IC50,"Plasmodium falciparum [4]; Plasmodium falciparum, W2",2.63 to 13.8 nM
